The values that follow come from US20210380548A1, “Fused [1,2,4]Thiadiazine Derivatives Which Act as KAT Inhibitors of the MYST Family” (CTxT Pty Limited, priority 2017, published 2021).

One test concerns the target T1, TIP60-KAT5 (Homo sapiens, UniProt Q92993).
T1 construct: encoding amino acid residues 2 to 461 (Uniprot Q92993-2) of human KAT5 isoform; made in house; host or cells: E. coli BL21 DE3
The test is described as follows: Acetyltransferase biochemical assay (AlphaScreen), KAT5. As to conditions: Table 1 (TIP60-KAT5); 0.4 μM Acetyl coenzyme A, histone H4, 10 nM enzyme.

The next test deals with T2, MOZ-KAT6A (Homo sapiens, UniProt Q92794, A567V).
T2 construct: encoding amino acid residues 507 to 778 (Uniprot Q92794-1) of human KAT6A; made in house; host or cells: E. coli BL21 DE3
Kind of test: Acetyltransferase biochemical assay (AlphaScreen), KAT6A. Conditions: Table 2 (MOZ-KAT6A); 10 μM Acetyl coenzyme A, histone H3.1, 5 nM enzyme. A general note: Bead proximity is the source of the signal in Alpha formats.

A further test addresses T3, QKF-KAT6B (Homo sapiens, UniProt Q8WYB5).
T3 construct: purchased SignalChem K315-381BG
The test is described as follows: Acetyltransferase biochemical assay (AlphaScreen), KAT6B. As to conditions: Table 5 (QKF-KAT6B); 0.4 μM Acetyl coenzyme A, histone H3.1, 8 nM enzyme.

Where only a bound is given, the exact number is not on record here.

A word on the IC50: it is the concentration that inhibits the measured activity by half. Lower therefore signals greater potency.

T1 sequence (Q92993 2-461 isoform Q92993-2): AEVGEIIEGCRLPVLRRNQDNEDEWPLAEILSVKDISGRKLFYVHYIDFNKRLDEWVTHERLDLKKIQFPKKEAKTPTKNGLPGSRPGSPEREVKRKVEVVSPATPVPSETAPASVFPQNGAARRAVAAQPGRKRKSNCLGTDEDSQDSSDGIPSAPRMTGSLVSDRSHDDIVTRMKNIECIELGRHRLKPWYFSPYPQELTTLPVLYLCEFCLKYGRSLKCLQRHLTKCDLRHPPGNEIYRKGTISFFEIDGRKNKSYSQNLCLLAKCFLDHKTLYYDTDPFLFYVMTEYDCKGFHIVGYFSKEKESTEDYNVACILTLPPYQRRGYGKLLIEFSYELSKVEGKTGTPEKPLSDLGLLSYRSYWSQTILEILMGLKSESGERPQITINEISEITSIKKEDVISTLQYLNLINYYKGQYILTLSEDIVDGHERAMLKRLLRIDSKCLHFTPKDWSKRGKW
T3 sequence (Q8WYB5 whole entry): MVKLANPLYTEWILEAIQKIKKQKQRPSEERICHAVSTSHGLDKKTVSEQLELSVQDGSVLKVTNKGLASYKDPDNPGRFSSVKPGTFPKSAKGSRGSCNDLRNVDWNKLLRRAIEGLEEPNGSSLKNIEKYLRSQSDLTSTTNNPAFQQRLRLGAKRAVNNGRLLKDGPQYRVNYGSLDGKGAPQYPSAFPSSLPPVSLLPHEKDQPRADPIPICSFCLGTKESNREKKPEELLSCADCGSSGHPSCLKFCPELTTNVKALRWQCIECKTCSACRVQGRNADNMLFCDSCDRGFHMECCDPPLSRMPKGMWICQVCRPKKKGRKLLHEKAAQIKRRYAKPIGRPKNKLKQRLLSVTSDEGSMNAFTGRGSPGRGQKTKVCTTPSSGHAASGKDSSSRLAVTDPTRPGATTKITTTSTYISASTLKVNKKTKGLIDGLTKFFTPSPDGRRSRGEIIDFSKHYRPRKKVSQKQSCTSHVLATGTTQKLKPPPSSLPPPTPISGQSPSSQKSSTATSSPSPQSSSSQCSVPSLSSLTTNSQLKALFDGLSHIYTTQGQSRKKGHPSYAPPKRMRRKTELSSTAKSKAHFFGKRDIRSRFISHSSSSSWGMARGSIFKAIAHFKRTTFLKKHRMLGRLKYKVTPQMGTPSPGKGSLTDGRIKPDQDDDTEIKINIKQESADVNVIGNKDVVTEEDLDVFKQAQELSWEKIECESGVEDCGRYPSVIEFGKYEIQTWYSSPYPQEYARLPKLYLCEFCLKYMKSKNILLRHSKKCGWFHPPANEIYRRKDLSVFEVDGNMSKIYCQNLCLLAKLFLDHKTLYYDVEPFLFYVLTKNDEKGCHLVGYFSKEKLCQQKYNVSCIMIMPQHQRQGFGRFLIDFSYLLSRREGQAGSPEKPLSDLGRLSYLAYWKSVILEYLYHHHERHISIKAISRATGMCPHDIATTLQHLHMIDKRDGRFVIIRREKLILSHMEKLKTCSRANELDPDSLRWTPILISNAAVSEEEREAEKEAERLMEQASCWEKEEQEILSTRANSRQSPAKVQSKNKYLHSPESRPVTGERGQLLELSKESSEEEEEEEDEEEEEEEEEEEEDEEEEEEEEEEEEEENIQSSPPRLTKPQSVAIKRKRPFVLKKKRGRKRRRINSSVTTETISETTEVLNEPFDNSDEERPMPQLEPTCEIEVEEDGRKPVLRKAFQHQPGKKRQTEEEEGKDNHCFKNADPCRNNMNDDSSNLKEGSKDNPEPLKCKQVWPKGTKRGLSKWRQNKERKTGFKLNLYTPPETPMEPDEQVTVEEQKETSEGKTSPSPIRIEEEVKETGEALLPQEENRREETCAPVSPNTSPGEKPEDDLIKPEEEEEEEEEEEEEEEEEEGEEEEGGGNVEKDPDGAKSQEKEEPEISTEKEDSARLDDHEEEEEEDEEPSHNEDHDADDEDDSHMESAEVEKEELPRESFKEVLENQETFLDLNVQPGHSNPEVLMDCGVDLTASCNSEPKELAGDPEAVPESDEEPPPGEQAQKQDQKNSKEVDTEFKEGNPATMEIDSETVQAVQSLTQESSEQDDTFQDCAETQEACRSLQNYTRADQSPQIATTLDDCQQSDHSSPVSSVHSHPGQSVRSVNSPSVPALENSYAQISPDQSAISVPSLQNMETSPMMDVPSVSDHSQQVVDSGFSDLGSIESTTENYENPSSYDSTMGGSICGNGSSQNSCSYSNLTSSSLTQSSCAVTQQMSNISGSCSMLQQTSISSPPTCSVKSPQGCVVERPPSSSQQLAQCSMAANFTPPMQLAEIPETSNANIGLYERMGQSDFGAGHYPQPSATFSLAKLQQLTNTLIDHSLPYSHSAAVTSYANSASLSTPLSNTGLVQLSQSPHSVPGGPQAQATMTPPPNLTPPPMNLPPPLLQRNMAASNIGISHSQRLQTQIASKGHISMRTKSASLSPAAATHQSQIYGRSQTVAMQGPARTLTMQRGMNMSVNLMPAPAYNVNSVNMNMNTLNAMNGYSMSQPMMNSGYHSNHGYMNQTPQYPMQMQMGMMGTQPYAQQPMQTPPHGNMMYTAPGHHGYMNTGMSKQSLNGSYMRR
T2 sequence (Q92794 507-778 A567V limits assumed): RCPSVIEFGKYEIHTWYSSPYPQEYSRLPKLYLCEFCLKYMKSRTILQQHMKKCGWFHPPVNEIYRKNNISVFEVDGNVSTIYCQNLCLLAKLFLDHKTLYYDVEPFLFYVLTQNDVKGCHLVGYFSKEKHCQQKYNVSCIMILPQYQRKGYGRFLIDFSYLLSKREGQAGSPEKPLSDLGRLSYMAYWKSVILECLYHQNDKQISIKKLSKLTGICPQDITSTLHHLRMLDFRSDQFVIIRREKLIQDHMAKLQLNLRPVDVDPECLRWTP

With `Cn1cc(-c2ccc3c(c2)S(=O)(=O)NC(C(=O)NCC(c2ccccc2)c2ccccc2)=N3)cn1` [Example 18, N-(2,2-diphenylethyl)-7-(1-methyl-1H-pyrazol-4-yl)-2H-benzo[e][1,2,4]thiadiazine-3-carboxamide 1,1-dioxide], the IC50 at TIP60-KAT5 was more than 125 µM; at MOZ-KAT6A, 3.12 µM; at QKF-KAT6B, 0.268 µM.
